Assay results taken from patent publication EP4610267A1, “CYCLIC DINUCLEOTIDES AND CONJUGATES THEREOF WITH ANTIBODIES” (priority 2024, dated 2025).

Experiments:
[1] = system: CT26 mouse colon carcinoma; experiment: CT26 mouse tumor model, intratumoral injection, tumor growth; format: in vivo, BALB/c mice; settings: 5mg/kg intratumorally on day 1, 4 and 8
Description: The CT26 mouse colon carcinoma cell line was obtained from American Type Culture Collection (ATCC®, CRL-2638). The cells were cultured in RPMI-1640 medium containing 10% fetal bovine serum, 2 mM glutamine, 100 units/mL penicillin G sodium, and 100 µg/mL streptomycin sulfate at 37 °C in a humidified incubator with 5% CO2. On the day of tumor implantation in ten-week-old female BALB/c mice (Charles River Laboratories), CT26 cells harvested during the exponential growth phase were resuspended in phosphate-buffered saline (PBS) at a concentration of 1 × 10^7 cells/mL. Tumors were initiated by subcutaneous implantation of 1 × 10^6 CT26 cells (in a 0.1 mL suspension) into the right flank of each test animal. Tumor dimensions were measured in two directions, and tumor volumes were calculated using the formula (L × W^2)/2. Animals were pair matched when tumor reached volume 100 - 150 mm^3 (designated as day 1) and injected intratumorally (i.t.) on day 1, 4 and 8 with 5mg/kg or 1.5mg/kg Compound 2.2 or PBS in total volume 20 µL.

[2] = system: STING-dependent cytokine IP10 (CXCL10) in HCC1954 cells; experiment: IP10 (CXCL10) induction in HCC1954 cells; format: cell-based, human; settings: free Warhead CDN, no antibody
Description: HCC1954 and 293T reporter cells were cultured as previously described. HCC1954 cells, which naturally express both Her2 and TROP2, were seeded into collagen-coated 96-well plates at a density of 0.5×10^6 cells/ml (100 µl/well) in RPMI medium supplemented with 10% FBS and Penicillin/Streptomycin. The following day, the medium was completely removed, and serial dilutions of mAb2-CDN and mAb5-CDN conjugates in medium were added to the wells. Levels of the STING-dependent cytokine IP10 (CXCL10) induction were determined in the medium using ProcartaPlex Immunoassays after 24 hours of incubation following the manufacturer's protocol and measured on a MagPix instrument. […] Nonlinear regression curve fitting was applied for EC50 value calculations. The EC50 value represents the concentration of the payload CDN 2.2 conjugated to anti-Her2 mAb2 or anti-TROP2 mAb5 that results in half-maximal levels of IP-10. Twenty million 293T WT STING reporter cells were seeded into two T150 flasks, each containing 30 mL of DMEM with high glucose supplemented with 10% heat-inactivated FBS. One flask was designated for transfected cells, and the other served as a non-transfected control. After 24 hours, the cell culture medium was replaced with 27 mL of fresh media. […] A 50 µL mixture was transferred to white 96-well plates, and luminescence was measured using a TECAN reader.

[3] = molecular target: T1, STING AQ (Homo sapiens, UniProt Q86WV6, G230A/H232R/R293Q); experiment: 293T STING digitonin reporter assay (AQ haplotype); format: cell-based; settings: digitonin permeabilised 293T reporter cells
T1 construct: expressed in transfected cells
Description: Digitonin Assay with 293T Reporter Cells. The generation of 293T reporter cells stably expressing different STING protein haplotypes (WT, HAQ, REF, AQ, or Q) was described previously (Novotna et al, J. Med. Chem. 2019,62, 10676). The cells were seeded at a density of 250 000 cells per cm^2 into 96 well white poly(D-lysine) coated plates in 100 µL of DMEM with high glucose supplemented with 10% heat inactivated FBS. Next day, the medium was removed, and compounds were added in 3-fold serial dilutions in a digitonin buffer containing 50 mM HEPES (pH 7.0), 100 mM KCl, 3 mM MgClz, 0.1 mM DTT, 85 mM sucrose, 0.2% (w/w) BSA, 1 mM ATP, 0.1 mM GTP, and 10 µg/mL digitonin A. After 30 min incubation at 37 °C with 5% CO2, the digitonin buffer was removed, cells were washed once with 100 µL of the cultivation medium, and 100 µL of fresh medium was added to each well. The plates with cells were further incubated for 5 h at 37 °C with 5% CO2. Thereafter, 50 µL of the medium was removed, and 30 µL of Bright-Glo Luciferase Assay System reagent was added to each well. […] Nonlinear regression curve fit with standard slope was used for EC50 value calculations. The EC50 value represents CDN concentration that gives half-maximal response of firefly luciferase in the 293T reporter assay.

T1 sequence (Q86WV6 whole entry G230A/H232R/R293Q): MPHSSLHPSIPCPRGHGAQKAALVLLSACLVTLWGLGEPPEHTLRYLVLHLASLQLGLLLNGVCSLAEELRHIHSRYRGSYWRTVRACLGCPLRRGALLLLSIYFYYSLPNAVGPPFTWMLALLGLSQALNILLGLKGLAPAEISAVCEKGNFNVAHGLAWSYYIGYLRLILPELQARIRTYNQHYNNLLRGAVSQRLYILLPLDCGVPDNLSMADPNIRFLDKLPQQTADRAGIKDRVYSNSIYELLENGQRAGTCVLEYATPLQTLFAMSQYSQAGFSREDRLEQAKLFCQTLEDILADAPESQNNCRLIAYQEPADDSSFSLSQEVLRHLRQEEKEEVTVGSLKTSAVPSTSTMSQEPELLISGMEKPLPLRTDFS

Structure (SMILES): Nc1ncnc2c1ncn2[C@@H]1O[C@@H]2OCP(=O)(S)O[C@@H]3[C@H](F)[C@@H](COP(=O)(S)OC[C@H]2[C@H]1F)O[C@H]3n1cnc2c(=O)[nH]cnc21 (single isomer, unassigned) [Compound 2.2]
- animals tumor free on day 65 (out twelve tumor bearing animals) [1]: Twelve
- EC50 [2]: 1700 nM
- EC50 [3]: 30 nM
